Data taken from US10005793B2, “Bodipy dyes for biological imaging” (The General Hospital Corporation, priority 2012, dated 2018).

Columns and labels:
[1] = test system: MDA-MB-231 pLVX H2B-mCherry cells; test: Live cell fluorescence imaging after 24 hours treatment; format: cell-based; conditions: 24 hours at 10 μM, 1 μM, and 100 nM; FIG. 5
Procedure: To investigate the impact of dye lipophilicity in the in vivo imaging context, we further treated MD-MBA 231 cells (with an H2B mCherry fluorescent reporter to localize the nucleus) with each compound for 24 hours at 10 μM, 1 μM, and 100 nM. Cells (MDA-MB-231 pLVX H2B-mCherry) lines were cultured using sterile technique in plastic dishes with standard cell-growth media [RPMI 1640 1× (+) phenol red, (+) 10% FBS, (+) 1% Pen-Strep]. Culture incubation during and in between experiments was performed in a sterile incubator (37° C., 5% CO2). All cultures used in imaging studies were confirmed to be mycoplasma-free prior to experimentation using a commercially available detection kit (MycoAlert, Lonza).
This property thereby limits non-specific staining effects that could have a confounding effect small-molecule imaging applications.

MD-MBA 231 cell line = test: Wash-out experiment, live-cell imaging; format: cell-based; conditions: 30 minutes incubation with 10 µM compound, three 30 minute washes; FIG. 6
Procedure: Further validation of the dyes' low-lipophilicity was achieved via a wash-out experiment with the MD-MBA 231 cell line. In this experiment, we investigated the ease of washing out the mono-alkoxy fluorophores within 30 minutes (e.g., within 15 minutes of the start of incubation).
Two days prior to imaging, cells were seeded at 20,000 cells/well on a 96-well Glass Bottom Microwell plate (MatriPlate, MGB096-1-2-LG-L) treated with 1× Attachment Factor (0.1% gelatin, Gibco). For these experiments, phenol-red free imaging media was used [RPMI 1640 1× (+) 10% FBS]. The day of imaging, each well was incubated for 30 minutes with […] of the title compound suspended in cell imaging media (final DMSO content=0.1%). Subsequently three washes were performed. Each wash consisted of removing spent media, adding fresh imaging media, and incubating the cells for 30 minutes. After the final wash, the media was aspirated, a thin layer of cell imaging media was added, and wells were rapidly imaged.
Live-cell imaging was performed on a Zeiss Axiovert 100M inverted epifluorescence microscope with a 40× objective. Per region of interest, a bright field view was acquired as well as GFP, TexasRed fluorescence channels.

| SMILES | staining pattern of live cells [1] | staining after wash-out (MD-MBA 231 cell line) |
| --- | --- | --- |
| CO[B-]1(F)n2c(C)cc(C)c2C(C)=C2C(C)=CC(C)=[N+]21 (stereo not shown) [AMC1028, 5-fluoro-5-methoxy-1,3,7,9,10-pentamethyl-5H-dipyrrolo[1,2-c:2′,1′-f][1,3,2]diazaborinin-4-ium-5-uide] | diffuse fluorescent signal | – |
| CC1=CC(C)=[N+]2C1=C(C)c1c(C)cc(C)n1[B-]2(F)OCCO (stereo not shown) [AMC1029, 5-fluoro-5-(2-hydroxyethoxy)-1,3,7,9,10-pentamethyl-5H-dipyrrolo[1,2-c:2′,1′-f][1,3,2]diazaborinin-4-ium-5-uide] | diffuse fluorescent signal | – |
| CC1=CC(C)=[N+]2C1=C(C)c1c(C)cc(C)n1[B-]2(F)F [AMC1094, 1,3,5,7,8-Pentamethyl BODIPY] | significant non-specific staining of cellular compartments | persistent non-specific staining |
